# Data reported in patent publication US12172988B2, “Anticancer and antifungal splice modulators” (priority 2021, dated 2024).
# Where two headings read alike, the source gives them in different places.
# Experiments:
# Assay type in all cases: cell-based, human
# [1] = system: HCT116 colorectal carcinoma cells; experiment: MTS cell viability / cell growth inhibition assay; conditions: for GI50: Homo sapiens, HCT-116, 72 h
# Method: With milligram quantities of 1a-1i at hand, we began our studies to evaluate the relative efficacy of each analogue using cell growth inhibition studies in HCT116 colorectal carcinoma cells. As reported in FIG. 3, GI50 values were collected for each analog after a 72 h treatment using the MTS cell viability assay (Table 12). Under these conditions, the natural FD-895 (1), 3S-FD-895 (1a) 17S-FD-895 (1d), 17-methoxy-FD-895 (1e) provided activities of <10 nM.
# HCT-116 cells was cultured in McCoy's 5a (Life Technologies) supplemented with 10% fetal bovine serum (FBS), 2 mM L-glutamine, and 100 U mL^−1 of penicillin and 100 μg mL^−1 of streptomycin at 37° C. in an atmosphere of 5% CO2. Compounds were dissolved in DMSO (MilliporeSigma). Cells were treated with 1-1j in media with ≥0.5% DMSO for 4-72 h.
# Studies were conducted in […] cell culture plates. HCT-116 plated at 5×10^3 cells/well were cultured for 24 h and then treated with analogs 1-1j for 4-72 h, then washed twice with 100 μL PBS. PBS (100 μL) was added to each well, followed by 20 μL of CellTiter Aqueous One Solution (Promega). After 2 h at 37° C., absorbance readings were taken at 490 nm (test wavelength) and 690 nm (reference wavelength). GI50 values were calculated in Prism (GraphPad) using greater 3 replicates.
# (§1) Cells were treated with 1 or 1a-1j in media (McCoy's 5a (Life Technologies) supplemented with 10% FBS, 2 mM L-glutamine, and 100 U mL^−1 of penicillin and 100 μg mL^−1 of streptomycin 0.5% DMSO) for 4 h or 24 h. Untreated cells were considered were used as negative control. Total RNA was isolated using mirVana miRNA isolation kit (Life Technologies). A 1 μg sample of RNA was subjected to DNAseI from a TURBO DNA free kit (Life Technologies). The cDNA was prepared by using SuperScript III reverse transcriptase kit (Life Technologies). The amount of unspliced RNA for different genes was determined using Power SYBR Green PCR master mix (Applied Biosystems) by qPCR using specific primers for each gene. qPCR using 2.5 μM of each primer was performed on 5 ng of the obtained cDNA. qPCR conditions were as follows: 95° C. for 10 min for one cycle, then 95° C. for 10 min for one cycle, then 95° C. for 30 s, 55° C. for 60 s, 72° C. for 60 s, for 40 cycles using the MXPro. Quantification cycle (Cq) values were identified for each sample, and then RNA levels were calculated using 2-ΔΔCT method. GAPDH was used as a control for normalization. At least three replicates were conducted for each compound. Namely, all genes explored in this study were evaluated from the same cell cultures. Here, individual cultures were used for each compound explored and at least three replicates were used for each compound. While experimental variation occurred between the different compound treatments, the levels of the different intron retention, exon skipping or RNA expression were collected from the same cellular material. Statistics were calculated using a standard one-way ANOVA; p values were represented so that * signifies p<0.0001. HCT116 were treated with analogs 1-1j ranging from 0.1-5000 nM for 72 hours, then cell viability was measured using the MTS assay. GI50 values and confidence intervals were calculated using GraphPad (Table 12).
# SF3A1 = experiment: qPCR splicing analysis, SF3A1 intron retention; conditions: HCT116, 4 h, 20 times GI50, qPCR relative to GAPDH
# Method: (§2) HCT116 tumor cells were treated with each analogue at 20 times the G150 value (Table 12) for 4 hours and then cellular RNA was isolated and purified for qPCR. Primers were designed to evaluate intron retention or exon skipping, direct responses to splice modulator treatment. Genes evaluated included those involved in splicing regulation (SF3A1, SF3A3, SF3B1, SF3B2), apoptosis (MCL-1L), protein folding (DNAJB1), and cell cycle regulation (AURKA, PLK-1) relative to the unspliced control GAPDH. For alternative splicing regulator (SF2), primers were designed to evaluate gene expression, which changes in response splice modulator treatment for SF2 relative to the unspliced control GAPDH. (−) denotes untreated cells.
# as §2, with “analogues” for “each analogue”, “100 nM (light grey), 250 nM (grey), or 500 nM (black)” for “20 times the G150 value (Table 12)”, “24 h” for “4 hours”, “(MCL-1L), and” for “(MCL-1L),”, “(DNAJB1),” for “(DNAJB1), and cell cycle regulation (AURKA, PLK-1)”, “(—)” for “(−)”
# (§3) Next, we turned our efforts to explore the ability of these analogues to modulate splicing. […] We treated cells for 4 h so that we could evaluate early changes in splicing activity, and then cellular RNA was isolated and purified for analyses by qPCR (FIG. 14). Most importantly, none of the concentrations tested led to significant changes in cell viability, ensuring that changes in gene expression were not due to cell death.
# (§4) For these studies, we evaluated the expression of genes involved in splicing regulation (SF3A1, SF3A3, SF3B1, SF3B2), apoptosis (MCL-1L), protein folding (DNAJB1), and cell cycle regulation (AURKA, PLK-1) relative to the unspliced control GAPDH. Primers were designed to evaluate intron retention or exon skipping, direct responses to splice modulator treatment. The master splicing regulator alternative splicing factor (SF2) was also evaluated, with the primers for this gene designed to evaluate overall gene expression, which changes in response to splice modulator treatment.
# (§5) From this 4 h study (FIG. 14), a small set of analogs (1, 1b, 1g, 1d, 1e, 1i and 1j) were selected to evaluate if effects on splicing when presented for a longer 24 h period. […] Using identical procedures as that used for 4 h, HCT116 cells were treated with three concentrations (100 nM, 250 nM and 500 nM) of each analog for 24 h. Multiple concentrations were used as a means to check further validate the use of the GI50 concentration in our prior study (FIG. 14). As before, none of the concentrations tested led to significant changes in cell viability over the 24-hour time window, ensuring that changes in gene expression were not due to cell death.
# (§6) Cells were treated with 1 or 1a-1j in media (McCoy's 5a (Life Technologies) supplemented with 10% FBS, 2 mM L-glutamine, and 100 U mL^−1 of penicillin and 100 μg mL^−1 of streptomycin 0.5% DMSO) for 4 h or 24 h. Untreated cells were considered were used as negative control. Total RNA was isolated using mirVana miRNA isolation kit (Life Technologies). A 1 μg sample of RNA was subjected to DNAseI from a TURBO DNA free kit (Life Technologies). The cDNA was prepared by using SuperScript III reverse transcriptase kit (Life Technologies). […]
# SF3B2 = experiment: qPCR splicing analysis, SF3B2 intron retention; conditions: HCT116, 4 h, 20 times GI50, qPCR relative to GAPDH
# Method: as §2
# as §2, with “analogues” for “each analogue”, “100 nM (light grey), 250 nM (grey), or 500 nM (black)” for “20 times the G150 value (Table 12)”, “24 h” for “4 hours”, “(MCL-1L), and” for “(MCL-1L),”, “(DNAJB1),” for “(DNAJB1), and cell cycle regulation (AURKA, PLK-1)”, “(—)” for “(−)”
# as §3, §4, §5, §6
# HCT116 tumor cells = experiment: qPCR structure-splicing profile over the gene panel; conditions: HCT116, 24 h, 100, 250, 500 nM, compared to 1
# Method: as §2, with “analogues” for “each analogue”, “100 nM (light grey), 250 nM (grey), or 500 nM (black)” for “20 times the G150 value (Table 12)”, “24 h” for “4 hours”, “(MCL-1L), and” for “(MCL-1L),”, “(DNAJB1),” for “(DNAJB1), and cell cycle regulation (AURKA, PLK-1)”, “(—)” for “(−)”
# as §4, §5, §1
compound,measurement,setting,value
"CC[C@H](OC)[C@@H](C)[C@H]1O[C@@H]1[C@@H](OC)[C@H](C)/C=C/C=C(\C)[C@H]1OC(=O)C[C@H](O)CC[C@@](C)(O)[C@@H](OC(C)=O)/C=C/[C@@H]1C [Analog 1f, 17-methoxy-17S-FD-895]",fold loss in activity,"[1]; HCT116 GI50, double modification (methylation and inversion at C17)",10 fold
same,GI50,"[1]; HCT116, 72 hours, MTS assay, 0.1-5000 nM, read-out: GI50 value",37.6 nM
same,GI50,"[1]; HCT116, 72 h treatment, MTS cell viability assay, read-out: GI50 value",38 nM
same,SF3A1 intron 6 retention (level of intron retention),SF3A1,more effective than 1
"CC[C@H](OC)[C@@H](C)[C@H]1O[C@@H]1[C@H](O)[C@H](C)/C=C/C=C(\C)[C@@H]1OC(=O)C[C@H](O)CC[C@@](C)(O)[C@@H](OC(C)=O)/C=C/[C@H]1C [Analog 1c, 10R,11R-FD-895]",GI50,[1]; read-out: GI50 value,36600 nM
same,GI50,[1]; read-out: GI50 value (text),37000 nM
"CC[C@H](OC)[C@@H](C)[C@H]1O[C@@H]1[C@H](O)[C@H](C)/C=C/C=C(\C)[C@H]1OC(=O)C[C@H](O)CC[C@@](C)(O)[C@@H](OC(C)=O)/C=C/[C@@H]1C [Analog 1, FD-895, reference compound]",GI50,[1]; read-out: GI50 value,1.72 nM
"CC[C@H](OC)[C@@H](C)[C@H]1O[C@@H]1[C@H](O)[C@H](C)/C=C/C=C(\C)[C@H]1OC(=O)C[C@H](O)CC[C@@](C)(O)[C@H](OC(C)=O)/C=C/[C@@H]1C [Analog 1b, 7R-FD-895]",fold less active (GI50) than 1,"[1]; HCT116 cell growth inhibition, compared to 1",250 fold
same,cell growth inhibitory activity compared to FD-895,[1]; HCT-116 cells,compromised activity
same,GI50,[1]; read-out: GI50 value,432 nM
same,SF3B2 intron retention (level of intron retention),SF3B2,improved efficacy
same,splicing activity over the genes tested,HCT116 tumor cells,loss of splicing activity when compared to 1
